Tests used:
C3HA murine fibroblasts = assay: TNF-α-induced apoptosis, Rhodamine 123 fluorescence; settings: M4N 50 μM, TNF-α 20 ng/ml + cycloheximide 10 μg/ml, 6 hours
Procedure: C3HA murine fibroblasts were incubated with human recombinant TNF-α (20 ng/ml), cycloheximide (CHI) (10 μg/ml), or both, in the absence/presence of NDGA (25 μM) or M4N (50 μM). All compounds were added simultaneously and treatments were for 6 hours. Rhodamine 123 was added during the last half hour and fluorescence measured using a BMG POLARstar galaxy flourimeter.
More specifically, C3HA cells were cultured in Dulbecco's modified Eagles medium supplemented with 10% fetal bovine serum and maintained at 37° C. in 8% carbon dioxide. […] For apoptosis assays, cells were harvested by trypsinization, centrifuged, counted and 1.5×10^4 cells added to each well of a flat bottom 96 well microtiter plate in culture media. Cells were allowed to adhere at least six (6) hours prior to the addition to TNF (20 ng/ml), CHI (10 μg/milliliter), or both, in the absence/presence of nordihydroguaiaretic acid (25 μM) or M4N (50 μM). […] Both were dissolved in culture media. […] Rhodamine 123 is sequestered by energized mitochondria and live healthy cells display strong mitochondrial fluorescence. […] Fluorescence intensity was then determined using a BMG POLARstar galaxy microplate reader with excitation and emission wavelengths set at 492 and 538 nanometers, respectively. All points were performed in triplicate and percentage cell death was calculated from the following formula: […]

influenza virus A/WS/33 = assay: microbe, parasite or virus in culture; assay type: cell-based
MDCK cells = assay: Toxic effects in MDCK cells

Structure (SMILES): COc1ccc(C[C@@H](C)[C@@H](C)Cc2ccc(OC)c(OC)c2)cc1OC [M4N, meso-1,4-bis(3,4-dimethoxyphenyl)-2,3-dimethylbutane]
- inhibition of TNF-α-induced apoptosis (C3HA murine fibroblasts): strongly inhibits
- inhibitory effect on virus titer (log plot) (influenza virus A/WS/33; EM-1421 25 μM, MDCK cells): less than 1 log unit
- inhibition at 25 µM (influenza virus A/WS/33; MDCK, 0.5 h, read-out: inhibition of A/WS/33 replication in MDCK cells): ~75%
- highest concentration that could be used without causing toxic effects (MDCK cells): 25 µM

Source: US20090155349A1, “METHODS OF TREATING INFLUENZA VIRAL INFECTIONS” (priority 2006, published 2009)
